The source of these data is US20230085263A1, “TASTEFUL NATURAL SWEETENER AND FLAVOR” (EPC Natural Products Co., Ltd., priority 2018, published 2023).

Data set [1] in a line: Kinetics of reaction in dependence of pH-conditions: degradation of Phe and Reb-A, Gluc, Xyl, Suc (HPLC/MS). As to conditions: KH2PO4 Buffer, 1.0 h, 120° C.; for Degradation: reaction of Phe and Gluc; for % formation from degraded Phe: reaction of Phe and Suc, n.d. = not detected.
Method: All samples were analyzed by HPLC/MS using following conditions.
The mobile phase consisted of (A) 0.1% HCOOH (v/v) and (B) AcCN. A gradient of 5% (B) to 15% (B) was applied between 0 min to 15 min. Between 15 and 20 min (B) was increased to 45% which was kept for 5 min. Detection consisted of UV/VIS-DAD (205 nm, 254 nm, 450 nm) coupled to ESI-MS (pos mode, 300° C., TIC from m/z 120-1200, fragmentor 100).
Quantitative Evaluation was Performed Using External Standardization.
A short description of data set [2]: Sensory evaluation of combinations of NHDC, EPCalin (Thaumatin) and Combination of GSGs and SGs in water (Example 234). As to conditions: 4.5 ppm Thaumatin and/or 50 ppm GSGs and SGs. The format is in vivo. The protocol:
4.5 ppm Thaumatin (equivalent to 10 ppm EPCalin) were dissolved in water. Increasing amounts of NHDC (1-5 ppm) were added to the solution and the sensory properties were evaluated.
50 ppm (GSGs and SGs) were dissolved in water. Increasing amounts of NHDC (1-5 ppm) were added to the solution and the sensory properties were evaluated.
50 ppm (GSGs and SGs) and 4.5 ppm Thaumatin (equivalent to 10 ppm EPCalin) were dissolved in water. Increasing amounts of NHDC (1-5 ppm) were added to the solution and the sensory properties were evaluated.
Sweetness intensity was rated on 5-point scale

A short description of data set [3]: Stevia-derived MRPs with NHDC and Thaumatin in Red Bull sugarfree (Example 240). As to conditions: 150 μl of sample in 100 ml Redbull sugar free. Type of data set: in vivo. As to the method:
Stevia-derived MRPs (Reference): 0.67 g xylose, 0.33 g phenylalanine and 4 g Stevia extract TSG95 were dissolved in 2.5 g deionized water. The solution was heated at about 100° C. for 2 h. After the reaction was complete, the slurry was diluted with 25 g water.
Stevia-derived MRPs by Combination of GSGs and SGs: 0.67 g xylose, 0.33 g phenylalanine, 4 g SGA (Combination of GSGs and SGs) were dissolved in 2.5 g deionized water. The solution was heated at about 100° C. for 2 h. After the reaction was complete, the slurry was diluted with 25 g water.
Stevia-derived MRPs by Combination of GSGs and SGs and NHDC: 0.67 g xylose, 0.33 g phenylalanine, 4 g SGA (Combination of GSGs and SGs) and 3 ppm (=82.5 μg) NHDC were dissolved in water. The solution was heated at about 100° C. for 2 h. After the reaction was complete, the slurry was diluted with 25 g water.
Stevia-derived MRPs by SGA (Combination of GSGs and SGs), NHDC and Thaumatin: 0.67 g xylose, 0.33 g phenylalanine, 4 g SGA (Combination of GSGs and SGs), 3 ppm (=82.5 μg) NHDC and 5 ppm (=302.5 μg EPCalin 45%) Thaumatin were dissolved in 2.5 g deionized water. The solution was heated at about 100° C. for 2 h. After the reaction was complete, the slurry was diluted with 25 g water.
150 μl of the each sample was added to 100 ml Redbull sugar free and mixed. The taste profiles of the samples were compared. […]

Data set [4] in a line: Assay to test reducing power (iron-III reduction test for anti-oxidant potential). The format is physicochemical. As to conditions: combinations of amino acids and Reb-A, 100° C., 0, 2.5 or 5.0 hours, diluted 1:10. The protocol:
Assay to Test Reducing Power
0.2 M Sodium phosphate buffer, pH=6.6; 500 mg Potassium ferric(III)cyanide/50 mL water, 10% Trichloroacetic acid; 20 mg Iron-III-Chloride/20 mL water; Calibration samples were prepared with Ascorbic acid in a concentration of 0-100 μg/mL 0.2 M Sodium phosphate buffer, pH=6.6 (freshly prepared); as negative control sample water was used.
Samples in aqueous solution were used as such or diluted in 0.2 M Sodium phosphate buffer, pH=6.6.
A 1 mL sample (or calibration standard) was mixed with 1 mL 0.2 M Sodium phosphate buffer, pH=6.6 and 1 mL Potassium ferricyanide solution. The sample was incubated and protected from light at 50° C. for 20 min.
To the solution was added 1 mL Trichloroacetic acid with thorough mixing.
A 1 mL of the mixture was diluted with 1 mL H2O and 0.2 mL Iron-Ill-chloride and reacted for 10 minutes; The absorbance was then determined at 700 nm against H2O.
10 mM of amino acid and/or 10 mM sugar were dissolved in 10 ml 0.1 mM KH2PO4-buffer, pH=7.8. […]
1 ml sample (or calibration standard) solution) was mixed with 0.2 M Sodium phosphate buffer (pH=6.6) and 1 ml Potassium ferric(III)cyanide solution in water (1% w/v) and incubated at 50° C. for 20 minutes. […] The sample was incubated for 10 minutes and absorbance read at 700 nm against a water control. […]
Quantification was performed by linear regression of calibration test results for ascorbic acid. […]

Data set [5] in a line: DPPH radical-scavenging activity (DPPH test for anti-oxidant potential). As to conditions: combinations of amino acids and Reb-A, 100° C., 0, 2.5 or 5.0 hours, diluted 1:10. The format is physicochemical. As to the method:
Assay to Rest DPPH Radical-Scavenging Activity
1 mg 1,1-Diphenyl-2-picrylhydrazyl radical (DPPH)/ml ethanol, dilution to assay concentration were prepared in ethanol (40 μg/mL); Calibration samples were prepared with Ascorbic acid in a concentration of 0-10 μg/mL; as a negative control sample, water was used.
Samples in aqueous solution were used as such or diluted with water.
A 0.1 ml sample (or calibration standard) was mixed with 3.9 ml solution of DPPH° (100 μMolar) and reacted while protected from light at room temperature for 30 min. Absorbance was determined at 517 nm against ethanol.
10 mM of amino acid and/or 10 mM sugar were dissolved in 10 ml 0.1 mM KH2PO4-buffer, pH=7.8.
The samples were kept at 100° C. in sealed glass vials (Pyrex 15 ml with screw caps) for 0 (before reaction), 2.5 or 5.0 hours. Thereafter the samples were transferred to an ice water bath and cooled down to room temperature. These samples were diluted 1:10 and used for the test assay for anti-oxidant potential. […]
0.2 ml sample (or calibration standard) solution was mixed with 0.2 ml solution of DPPH° (0.1 mM) and 3.6 ml methanol. […] After 3 minutes the absorbance at 517 nm was obtained against ethanol. Quantification was performed by linear regression of calibration test results for ascorbic acid. […]
(In general: The DPPH test is a chemical assay of radical scavenging.)

The nature of data set [6]: Degree of kokumi with thickeners carrageenan, gellan gum, Tamarind gum (Examples 168-170). Further details: species or system people. As to conditions: in vivo. The protocol:
Carrageenan was added to pure water to prepare several carrageenan solutions with a concentration gradient as standard solutions for judging the degree of kokumi of the carrageenan solutions. […] Method: For evaluation of the degree of kokumi, the sample solutions (described above) were tested by a panel of four people. […] The tester was allowed to re-taste, and then made judgment. […] Gellan gum was added to pure water to prepare several gellan gum solutions with a concentration gradient as standard solutions for judging the degree of kokumi of the gellan gum solutions. […] Method: For evaluation of the degree of kokumi, the sample solutions (described above) were tested by a panel of four people. […] The tester was allowed to re-taste, and then made judgment. […] Tamarind gum was added to pure water to prepare several Tamarind gum solutions with a concentration gradient as standard solutions for judging the degree of kokumi of the Tamarind gum solutions. […] Method: For evaluation of the degree of kokumi, the sample solutions (described above) were tested by a panel of four people. […] The tester was allowed to re-taste, and then made judgment.

“Also recorded” adds a separate entry of the source.

With `NC(Cc1ccccc1)C(=O)O` (single isomer, unassigned) [Phe], the Degradation in data set [1] (pH = 5.5) came out at 2.26; in data set [1] (pH = 7.0), 2.18; in data set [1] (pH = 8.5), 4.24.
In the case of `OC[C@H]1OC(O)[C@H](O)[C@@H](O)[C@@H]1O` (stereo partly shown) [Glu], the Degradation is given as 3.65 in data set [1] (pH = 5.5), 4.6 in data set [1] (pH = 7.0) and 7.62 in data set [1] (pH = 8.5).
Consider `O=C(O)[C@H](Cc1ccccc1)NCC(=O)[C@@H](O)[C@H](O)[C@H](O)CO` [MRI (Phe-Glu)], for which the figures for the “% formation from degraded Phe” value in data set [1] (pH = 5.5), in data set [1] (pH = 7.0) and in data set [1] (pH = 8.5) were less than 0.10%, 0.54% and 0.84%, respectively.
As to `COc1ccc(CCC(=O)c2c(O)cc(O[C@@H]3O[C@H](CO)[C@@H](O)[C@H](O)[C@H]3O[C@@H]3O[C@@H](C)[C@H](O)[C@@H](O)[C@H]3O)cc2O)cc1O` [NHDC, Neohesperidin dihydrochalcone], the “sensory properties (sweetness, onset, lingering, mouth-feel)” value in data set [2] is reported as “long lasting lingering; also recorded: boosts the lingering”. In data set [3], the “taste profile in sugarfree beverage” value was “improved the mouth-feel and harmony of taste impression yielding a substantially improved taste profile”.
Turning to `C=C1C[C@@]23CC[C@H]4[C@@](C)(CCC[C@@]4(C)C(=O)O[C@@H]4O[C@H](CO)[C@@H](O)[C@H](O)[C@H]4O)[C@@H]2CC[C@]1(O[C@@H]1O[C@H](CO)[C@@H](O)[C@H](O[C@@H]2O[C@H](CO)[C@@H](O)[C@H](O)[C@H]2O)[C@H]1O[C@@H]1O[C@H](CO)[C@@H](O)[C@H](O)[C@H]1O)C3` [Reb-A, Rebaudioside A], the “anti-oxidant properties (active iron-III reduction)” value in data set [4] is listed as “substantial anti-oxidant properties”. Besides, the “anti-oxidant properties (radical scavenging)” value in data set [5] is reported as “substantial anti-oxidant properties”.
Tamarind gum: the “concentration above which taste like starch paste can be clearly felt” value in data set [6] is “exceeds 1400 ppm”.
As to carrageenan, the “concentration above which taste like starch paste can be clearly felt” value in data set [6] is “exceeds 1000 ppm”.
Regarding gellan gum, the “concentration above which taste like starch paste can be clearly felt” value in data set [6] is “exceeds 1400 ppm”.
